{"source": "paper PMC5377441", "about": "(International Journal for Parasitology: Drugs and Drug …, 2017)", "key": {"T. muris [1]": {"test_system": "T. muris", "test": "Drug uptake by T. muris in vivo", "parameters": "species or system Trichuris muris in C57BL/10 mice"}, "H. polygyrus": {"test_system": "H. polygyrus", "details": "oral 100 mg/kg; ref Unpublished data; cited from earlier work"}, "[2]": {"assay_type": "in vivo, C57BL/10 mice"}, "T. muris [3]": {"test_system": "T. muris", "test": "In vitro drug uptake and elimination by T. muris", "assay_type": "in vitro ADME, Trichuris muris", "details": "24 h"}, "T. muris [4]": {"test_system": "T. muris", "details": "oral 150 mg/kg; ref Keiser et al., 2013; cited from earlier work"}, "trichuriasis": {"test_system": "trichuriasis", "details": "ref Keiser and Utzinger, 2008; cited from earlier work"}, "adult H. polygyrus": {"test_system": "adult H. polygyrus", "details": "100 μM, 72 h; ref Unpublished data; cited from earlier work"}, "adult T. muris": {"test_system": "adult T. muris", "details": "incubation at >600 μM, 72 h; ref Keiser et al., 2012; cited from earlier work"}}, "note": "Where two headings read alike, the source gives them in different places. Marks after values point to notes of the source that are not given here.", "data": [{"compound": "COC(=O)Nc1nc2ccc(C(=O)c3ccccc3)cc2[nH]1", "note": "[Mebendazole, mebendazole]", "values": [{"measurement": "drug quantity in worms, maximum", "setting": "T. muris [1]; in vivo", "value": "≤ 21", "unit": "nmol per ten T. muris"}, {"measurement": "mebendazole in worms", "setting": "T. muris [1]; intraperitoneal 100 mg/kg, 2 h", "value": 5, "unit": "nmol/10 worms"}, {"measurement": "mebendazole in worms", "setting": "T. muris [1]; oral 100 mg/kg, unchanged over time, close to LLOQ", "value": 20, "unit": "nmol/10 worms"}, {"measurement": "Worm burden reduction", "setting": "H. polygyrus", "value": "59% [100 mg/kg] ^a"}, {"measurement": "concentration at 2 h", "setting": "[2]; C57BL/10, mouse, plasma, intraperitoneal, 100 mg/kg", "value": 3.6, "unit": "µM"}, {"measurement": "mebendazole in the mucosa of the large intestine", "setting": "[2]; intraperitoneal 100 mg/kg, 2 h", "value": 1, "unit": "µmol/g"}, {"measurement": "mebendazole in the mucosa of the small intestine", "setting": "[2]; intraperitoneal 100 mg/kg, 2 h", "value": 4, "unit": "µmol/g"}, {"measurement": "administered drug in the large intestine", "setting": "[2]; oral 100 mg/kg, 2 h", "value": 18, "unit": "µmol/g"}, {"measurement": "administered drug in the mucosa of the large intestine", "setting": "[2]; oral 100 mg/kg, 2 h", "value": 3, "unit": "µmol/g"}, {"measurement": "administered drug in the mucosa of the small intestine", "setting": "[2]; oral 100 mg/kg, 2 h", "value": 8, "unit": "µmol/g"}, {"measurement": "administered drug in the small intestine", "setting": "[2]; oral 100 mg/kg, 2 h", "value": 222, "unit": "µmol/g"}, {"measurement": "administered drug in the stomach", "setting": "[2]; oral 100 mg/kg, 2 h", "value": 215, "unit": "µmol/g"}, {"measurement": "administered drug in the large intestine", "setting": "[2]; oral 100 mg/kg, 5 h", "value": 100, "unit": "µmol/g"}, {"measurement": "administered drug in the mucosa of the large intestine", "setting": "[2]; oral 100 mg/kg, 5 h", "value": 5, "unit": "µmol/g"}, {"measurement": "administered drug in the mucosa of the small intestine", "setting": "[2]; oral 100 mg/kg, 5 h", "value": 6, "unit": "µmol/g"}, {"measurement": "administered drug in the large intestine", "setting": "[2]; oral 100 mg/kg, 8 h", "value": 40, "unit": "µmol/g"}, {"measurement": "administered drug in the mucosa of the large intestine", "setting": "[2]; oral 100 mg/kg, 8 h", "value": 2, "unit": "µmol/g"}, {"measurement": "administered drug in the mucosa of the small intestine", "setting": "[2]; oral 100 mg/kg, third value, time not given", "value": 4, "unit": "µmol/g"}, {"measurement": "MBZ in worms", "setting": "T. muris [3]; incubation at 5 μM", "value": "482 ± 388", "unit": "nmol/10 worms"}, {"measurement": "MBZ in worms", "setting": "T. muris [3]; incubation at 10 μM", "value": "626 ± 463", "unit": "nmol/10 worms"}, {"measurement": "MBZ in worms", "setting": "T. muris [3]; incubation at 25 μM", "value": "672 ± 251", "unit": "nmol/10 worms"}, {"measurement": "MBZ in worms", "setting": "T. muris [3]; incubation at 50 μM", "value": "826 ± 390", "unit": "nmol/10 worms"}, {"measurement": "MBZ in worms", "setting": "T. muris [3]; incubation at 75 μM", "value": "910 ± 362", "unit": "nmol/10 worms"}, {"measurement": "MBZ in worms", "setting": "T. muris [3]; incubation at 100 μM", "value": "861 ± 503", "unit": "nmol/10 worms"}, {"measurement": "Worm burden reduction", "setting": "T. muris [4]", "value": "68% [150 mg/kg] ^c"}, {"measurement": "cure rate", "setting": "trichuriasis", "value": "below 36%"}, {"measurement": "Drug effect", "setting": "adult H. polygyrus", "value": "0% [100 μM] ^a"}, {"measurement": "Drug effect", "setting": "adult T. muris", "value": "<50", "unit": "% ^b"}]}]}
